Assay results from patent US9067977B2, “Peptides derivatized with A-B-C-D- and their therapeutical use” (Novo Nordisk A/S, priority 2007, dated 2015).
Starred links: 1 amine or outer side, 2 acyl side, 3 side chain; linkers in the order of their positions; H or OH if unused. Non-standard residues stand in square brackets, D forms with d. Residues, ends and D or L forms follow the SMILES beside them. Groups on a side chain read outwards from the residue. *: point of attachment. X2 = O=C(O)CCCCCCCCCCCCCCCCCCC(=O)NCC1CCC(C(=O)*)CC1; C20 diacid = O=C(O)CCCCCCCCCCCCCCCCCCC(=O)*; d(βAsp) = O=C(O)[C@@H](CC(=O)[*:2])N[*:1]; γGlu = O=C(O)[C@H](CCC(=O)[*:2])N[*:1]; Desaminohistidyl = O=C(CCc1c[nH]cn1)*; βAsp = O=C(O)[C@H](CC(=O)[*:2])N[*:1]; AEEA = NCCOCCOCC(=O)O; Aib = CC(C)(N)C(=O)O; Inp = O=C(O)C1CCNCC1; Bn = c1ccc(C*)cc1

Molecular target: human serum albumin (HSA) (Homo sapiens, UniProt P02768)
Sequence (P02768 25-609): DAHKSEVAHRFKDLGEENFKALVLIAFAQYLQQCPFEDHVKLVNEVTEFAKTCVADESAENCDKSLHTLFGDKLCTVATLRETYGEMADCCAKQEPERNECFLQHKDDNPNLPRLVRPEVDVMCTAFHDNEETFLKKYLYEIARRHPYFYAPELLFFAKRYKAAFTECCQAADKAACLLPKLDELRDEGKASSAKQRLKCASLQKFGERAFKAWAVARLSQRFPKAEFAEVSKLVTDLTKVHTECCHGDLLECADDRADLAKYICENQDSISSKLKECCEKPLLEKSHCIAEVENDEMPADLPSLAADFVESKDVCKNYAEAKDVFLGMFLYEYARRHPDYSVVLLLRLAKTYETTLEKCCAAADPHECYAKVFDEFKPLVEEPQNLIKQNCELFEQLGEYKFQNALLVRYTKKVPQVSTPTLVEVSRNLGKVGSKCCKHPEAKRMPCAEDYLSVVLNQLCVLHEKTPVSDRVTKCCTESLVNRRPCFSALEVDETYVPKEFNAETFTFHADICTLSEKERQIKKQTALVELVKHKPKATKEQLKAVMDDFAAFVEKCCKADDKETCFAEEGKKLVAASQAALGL
Assay: Albumin binding affinity, competition scintillation proximity assay
Details: for EC50 at 20 h: human, biotinylated human serum albumin on streptavidin-SPA beads, pH 7.4
Protocol: Streptavidin-SPA beads (GE Healthcare RPNQ0009) were incubated with biotinylated HSA for 5 hours. The beads were washed with buffer to remove unbound HSA. […] After 20 hours of gentle rocking at room temperature the plates were centrifuged and counted on a TopCounter.

| Structure (SMILES) | EC50 [nM] | EC50 at 20 h [nM] |
| --- | --- | --- |
| CC[C@H](C)[C@H](NC(=O)[C@H](Cc1ccccc1)NC(=O)[C@H](CCC(=O)O)NC(=O)[C@H](CCCNC(=N)N)NC(=O)[C@H](C)NC(=O)[C@H](C)NC(=O)[C@H](CCC(N)=O)NC(=O)CNC(=O)[C@H](CCC(=O)O)NC(=O)[C@H](CC(C)C)NC(=O)[C@H](Cc1ccc(O)cc1)NC(=O)[C@H](CO)NC(=O)[C@H](CO)NC(=O)[C@@H](NC(=O)[C@H](CC(=O)O)NC(=O)[C@H](CO)NC(=O)[C@@H](NC(=O)[C@H](Cc1ccccc1)NC(=O)[C@@H](NC(=O)CNC(=O)[C@H](CCC(=O)O)NC(=O)[C@H](C)NC(=O)CCc1cnc[nH]1)[C@@H](C)O)[C@@H](C)O)C(C)C)C(=O)N[C@@H](C)C(=O)N[C@@H](Cc1c[nH]c2ccccc12)C(=O)N[C@@H](CC(C)C)C(=O)N[C@H](C(=O)N[C@@H](CCCNC(=N)N)C(=O)NCC(=O)N[C@@H](CCCNC(=N)N)C(=O)NCC(=O)N[C@@H](CCCCNC(=O)COCCOCCNC(=O)COCCOCCNC(=O)CC[C@H](NC(=O)[C@H]1CC[C@H](CNC(=O)CCCCCCCCCCCCCCCCCCC(=O)O)CC1)C(=O)O)C(N)=O)C(C)C [Example 28] | > 2000 |  |
| CC[C@H](C)[C@H](NC(=O)[C@H](Cc1ccccc1)NC(=O)[C@H](CCC(=O)O)NC(=O)[C@H](CCCNC(=N)N)NC(=O)[C@H](C)NC(=O)[C@H](C)NC(=O)[C@H](CCC(N)=O)NC(=O)C(C)(C)NC(=O)[C@H](CCC(=O)O)NC(=O)[C@H](CC(C)C)NC(=O)[C@H](Cc1ccc(O)cc1)NC(=O)[C@H](CCCCNC(=O)COCCOCCNC(=O)COCCOCCNC(=O)CC[C@H](NC(=O)C1CCN(C(=O)CCCCCCCCCCCCCCCCCCC(=O)O)CC1)C(=O)O)NC(=O)[C@H](CO)NC(=O)[C@@H](NC(=O)[C@H](CC(=O)O)NC(=O)[C@H](CO)NC(=O)[C@@H](NC(=O)[C@H](Cc1ccccc1)NC(=O)[C@@H](NC(=O)CNC(=O)[C@H](CCC(=O)O)NC(=O)C(C)(C)NC(=O)[C@@H](N)Cc1c[nH]cn1)[C@@H](C)O)[C@@H](C)O)C(C)C)C(=O)N[C@@H](C)C(=O)N[C@@H](Cc1c[nH]c2ccccc12)C(=O)N[C@@H](CC(C)C)C(=O)N[C@H](C(=O)N[C@@H](CCCNC(=N)N)C(=O)NC(C)(C)C(=O)N[C@@H](CCCNC(=N)N)C(=O)NCC(=O)O)C(C)C [Example 70] (H-H[Aib]EGTFTSDVSK([AEEA-AEEA-γGlu-Inp-C20 diacid])YLE[Aib]QAAREFIAWLVR[Aib]RG-OH) |  | 800 to 2000 |
| CC[C@H](C)[C@H](NC(=O)[C@H](Cc1ccccc1)NC(=O)[C@H](CC(C)C)NC(=O)[C@H](CCCCNC(=O)COCCOCCNC(=O)COCCOCCNC(=O)C[C@@H](NC(=O)C1CCN(C(=O)CCCCCCCCCCCCCCCCCCC(=O)O)CC1)C(=O)O)NC(=O)[C@@H](NC(=O)[C@H](C)NC(=O)[C@H](CCC(=O)O)NC(=O)[C@H](CCC(=O)O)NC(=O)[C@H](CCC(=O)O)NC(=O)[C@H](CC(C)C)NC(=O)[C@H](CCC(N)=O)NC(=O)[C@H](CCCCN)NC(=O)[C@H](CO)NC(=O)[C@H](CC(C)C)NC(=O)[C@H](CC(=O)O)NC(=O)[C@H](CO)NC(=O)[C@@H](NC(=O)[C@H](Cc1ccccc1)NC(=O)[C@@H](NC(=O)CNC(=O)[C@H](CCC(=O)O)NC(=O)C(C)(C)NC(=O)[C@@H](N)Cc1c[nH]cn1)[C@@H](C)O)[C@@H](C)O)C(C)C)C(=O)N[C@@H](CCC(=O)O)C(=O)N[C@@H](Cc1c[nH]c2ccccc12)C(=O)N[C@@H](CC(C)C)C(=O)N[C@@H](CCCCN)C(=O)N[C@@H](CCC(N)=O)C(=O)NCC(=O)NCC(=O)N1CCC[C@H]1C(=O)N[C@@H](CO)C(=O)N[C@@H](CO)C(=O)NCC(=O)N[C@@H](C)C(=O)N1CCC[C@H]1C(=O)N1CCC[C@H]1C(=O)N1CCC[C@H]1C(=O)N[C@@H](COCc1ccccc1)C(N)=O [Example 2, N-ε^20-{2-[2-(2-{2-[2-((R)-3-carboxy-3-{[1-(19-carboxynonadecanoyl)piperidine-4-carbonyl]amino}propionylamino)ethoxy]ethoxy}acetylamino)ethoxy]ethoxy}acetyl [Aib^2,Leu^14,Lys^20,Gln^28,Ser(O-benzyl)^39] exendin-4 (1-39)amide] (H-H[Aib]EGTFTSDLSKQLEEEAVK([AEEA-AEEA-d(βAsp)-Inp-C20 diacid])LFIEWLKQGGPSSGAPPPS(Bn)-NH2) | 300 to 800 |  |
| CC[C@H](C)[C@H](NC(=O)[C@H](Cc1ccccc1)NC(=O)[C@H](CCC(=O)O)NC(=O)[C@H](CCCNC(=N)N)NC(=O)[C@H](C)NC(=O)[C@H](C)NC(=O)[C@H](CCC(N)=O)NC(=O)[C@H](CCC(=O)O)NC(=O)[C@H](CCC(=O)O)NC(=O)[C@H](CC(C)C)NC(=O)[C@H](Cc1ccc(O)cc1)NC(=O)[C@H](CO)NC(=O)[C@H](CO)NC(=O)[C@@H](NC(=O)[C@H](CC(=O)O)NC(=O)[C@H](CO)NC(=O)[C@@H](NC(=O)[C@H](Cc1ccccc1)NC(=O)[C@@H](NC(=O)CNC(=O)[C@H](CCC(=O)O)NC(=O)[C@H](C)NC(=O)CCc1c[nH]cn1)[C@@H](C)O)[C@@H](C)O)C(C)C)C(=O)N[C@@H](C)C(=O)N[C@@H](Cc1c[nH]c2ccccc12)C(=O)N[C@@H](CC(C)C)C(=O)N[C@H](C(=O)N[C@@H](CCCNC(=N)N)C(=O)NCC(=O)N[C@@H](CCCNC(=N)N)C(=O)NCC(=O)N[C@@H](CCCCNC(=O)CC[C@H](NC(=O)COCCOCCNC(=O)CC[C@H](NC(=O)C1CCN(C(=O)CCCCCCCCCCCCCCCCCCC(=O)O)CC1)C(=O)O)C(=O)O)C(=O)O)C(C)C [Example 57, [DesaminoHis7,Glu22,Arg26,34]-GLP-1 (7-37)-Lys((S)-4-carboxy-4-(2-{2-[2-((S)-4-carboxy-4-{[1-(19-carboxynonadecanoyl)piperidine-4-carbonyl]amino}butyrylamino)ethoxy]ethoxy}acetylamino)butyryl) peptide] (Desaminohistidyl-AEGTFTSDVSSYLEEQAAREFIAWLVRGRGK([γGlu-AEEA-γGlu-Inp-C20 diacid])-OH) |  | 100 to 150 |
| CC[C@H](C)[C@H](NC(=O)[C@H](Cc1ccccc1)NC(=O)[C@H](CCC(=O)O)NC(=O)[C@H](CCCNC(=N)N)NC(=O)[C@H](C)NC(=O)[C@H](C)NC(=O)[C@H](CCC(N)=O)NC(=O)[C@H](CCC(=O)O)NC(=O)[C@H](CCC(=O)O)NC(=O)[C@H](CC(C)C)NC(=O)[C@H](Cc1ccc(O)cc1)NC(=O)[C@H](CO)NC(=O)[C@H](CO)NC(=O)[C@@H](NC(=O)[C@H](CC(=O)O)NC(=O)[C@H](CO)NC(=O)[C@@H](NC(=O)[C@H](Cc1ccccc1)NC(=O)[C@@H](NC(=O)CNC(=O)[C@H](CCC(=O)O)NC(=O)C(C)(C)NC(=O)[C@@H](N)Cc1c[nH]cn1)[C@@H](C)O)[C@@H](C)O)C(C)C)C(=O)N[C@@H](C)C(=O)N[C@@H](Cc1c[nH]c2ccccc12)C(=O)N[C@@H](CC(C)C)C(=O)N[C@H](C(=O)N[C@@H](CCCNC(=N)N)C(=O)NCC(=O)N[C@@H](CCCNC(=N)N)C(=O)NCC(=O)N[C@@H](CCCCNC(=O)COCCOCCNC(=O)COCCOCCNC(=O)C[C@H](NC(=O)C1CCC(CNC(=O)CCCCCCCCCCCCCCCCCCC(=O)O)CC1)C(=O)O)C(N)=O)C(C)C (stereo partly drawn) [Example 22, [Aib8,Glu22,Arg26,Arg34]GLP-1-(7-37)Lys[2-(2-[2-(2-[2-(2-((S)-3-[4-([19-Carboxynonadecanoylamino]methyl)cyclohexylcarbonylamino]-3-carboxypropionylamino)ethoxy)ethoxy]acetylamino)ethoxy]ethoxy)acetyl]amide] (H-H[Aib]EGTFTSDVSSYLEEQAAREFIAWLVRGRGK([AEEA-AEEA-βAsp-X2])-NH2; N-terminus assumed) | 150 to 300 |  |
